Values quoted from earlier work in patent US20220175673A1, “SURGICAL DEVICE” (Saint Anthony Biomedical, LLC, priority 2017, published 2022).

Key:
[1] = test system: MDR isolates (MRSA, E. faecium, K pneumoniae, E. aerogenes, E. coli and A. baumani); conditions: 0.05% CHG, 1-minute exposure
[2] = test system: Epidermophyton occosum, Microsporum gypseum, M canis, Trichophyton mentagrophytes
[3] = test system: Streptococcus mutans, S. pyogenes, S. salivarius, S. sanguis; conditions: Gram-positive aerobic bacteria
[4] = test system: Enterococcus, including E. faecalis and E. faecium; conditions: vancomycin-susceptible and vancomycin-resistant strains
[5] = test system: CMV, HIV, HSV-1, HSV-2, influenza virus, parainfluenza virus, variola virus; conditions: viruses with a lipid component in outer coat or an outer envelope
Veillonella = conditions: compared with other anaerobic bacteria
[6] = test system: Candida albicans, C. dubliniensis, C. glabrata, C. gullermondii, C. pseudotropicalis, C. krusei, C. lusitaniae, C. tropicalis
[7] = test system: Staphylococcus aureus, S. epidermidis, S. haemolyticus, S. hominis, S. simulans; conditions: both oxacillin-resistant and oxacillin-susceptible staphylococci

SMILES | log-reduction in MDR isolates [1] | activity [2] | effect on keratinocytes (keratinocytes) | activity [3] | activity [4] | antiviral activity [5] | activity (Veillonella) | activity [6] | activity [7] | effect on wound healing (wound healing)
N=C(NCCCCCCNC(=N)NC(=N)Nc1ccc(Cl)cc1)NC(=N)Nc1ccc(Cl)cc1.O=C(O)[C@H](O)[C@@H](O)[C@H](O)[C@H](O)CO.O=C(O)[C@H](O)[C@@H](O)[C@H](O)[C@H](O)CO [CHG, chlorhexidine gluconate] | greater than or equal to 99.99% |  |  |  |  |  |  |  |  | 
[H]/N=C(\N/C(=N/[H])NCCCCCCNC(=N)NC(=N)Nc1ccc(Cl)cc1)Nc1ccc(Cl)cc1 [Chlorhexidine, chlorhexidine] |  | some activity | cytotoxic effect | highly active | active | appears to have antiviral activity | less active | some activity | active | inhibitory effect
